Earlier results in patent publication US5969017A, “Methods of treating or preventing cardiac arrhythmia” (Merck & Co., Inc., priority 1997, dated 1999).

Experiments:
[1] = system: K+ currents; conditions: 0.4 mM as printed; cited from earlier work
[2] = system: L-type Ca2+ channels; conditions: Kass 1982; cited from earlier work
[3] = system: IKr; conditions: background; cited from earlier work
[4] = molecular target: T1, IKs (Cavia porcellus, UniProt O70344); conditions: Balser et al., guinea pig ventricular myocytes; cited from earlier work
T1 construct: Guinea pig ventricular myocytes were isolated; endogenous in cells; host or cells: isolated guinea pig ventricular myocytes
T1 sequence (O70344 whole entry): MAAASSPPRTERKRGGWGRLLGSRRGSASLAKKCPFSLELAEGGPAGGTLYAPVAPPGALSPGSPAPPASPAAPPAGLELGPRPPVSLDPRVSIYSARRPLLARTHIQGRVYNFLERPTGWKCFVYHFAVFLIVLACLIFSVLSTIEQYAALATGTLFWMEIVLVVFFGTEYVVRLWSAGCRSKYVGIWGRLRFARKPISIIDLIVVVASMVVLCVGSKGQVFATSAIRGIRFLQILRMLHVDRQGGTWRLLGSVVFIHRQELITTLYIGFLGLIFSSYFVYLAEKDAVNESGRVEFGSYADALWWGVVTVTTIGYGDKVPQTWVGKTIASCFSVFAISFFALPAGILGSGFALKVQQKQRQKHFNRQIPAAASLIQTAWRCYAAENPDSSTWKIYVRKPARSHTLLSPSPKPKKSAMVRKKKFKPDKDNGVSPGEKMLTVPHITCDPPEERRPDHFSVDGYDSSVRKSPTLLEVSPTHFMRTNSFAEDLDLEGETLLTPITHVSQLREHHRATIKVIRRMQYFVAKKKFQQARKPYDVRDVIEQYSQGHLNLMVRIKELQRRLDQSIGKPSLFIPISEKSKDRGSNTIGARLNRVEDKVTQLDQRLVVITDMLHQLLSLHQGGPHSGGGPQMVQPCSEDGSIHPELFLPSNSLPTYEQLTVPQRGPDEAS
T1 sequence (Q60409 whole entry partner): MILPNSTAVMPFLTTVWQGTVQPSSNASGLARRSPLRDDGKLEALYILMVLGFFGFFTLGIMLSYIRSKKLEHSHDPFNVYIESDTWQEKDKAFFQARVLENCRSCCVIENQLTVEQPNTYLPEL

[5] = system: INa; conditions: background; cited from earlier work
[6] = system: ICa; conditions: background; cited from earlier work

In the case of COC(=O)C1=C(C)NC(C)=C(C(=O)OCC(C)C)C1c1ccccc1[N+](=O)[O-] (centres unmarked) [Nisoldipine], the “effect on K+ currents (in words)” value [1] is listed as “no effect on K^+ currents” and the “block of L-type Ca2+ channels (in words)” value [2] is listed as “relatively specific blocker”.

For CN(CCOc1ccc(NS(C)(=O)=O)cc1)CCc1ccc(NS(C)(=O)=O)cc1 [dofetilide], the “block of IKr (in words)” value [3] is listed as “predominantly, if not exclusively, block IKr”.

For CCCCc1oc2ccccc2c1C(=O)c1cc(I)c(OCCN(CC)CC)c(I)c1 [amiodarone], the “block of IKs (in words)” value [4] is listed as “blocker of IKs”, the “block of INa (in words)” value [5] is listed as “blocks INa” and the “block of ICa (in words)” value [6] is listed as “blocks INa and ICa”.

For CS(=O)(=O)Nc1ccc2c(c1)C(O)CC1(CCN(C3CCc4cc(C#N)ccc4C3)CC1)O2 (single isomer, unassigned) [MK-499, methanesulfonamide--N--[1'-6-cyano-1,2,3,4-tetrahydro-2-naphthalenyl)-3,4-dihydro-4-hydroxyspiro[2H-1-benzopyran-2,4'-piperidin]-6yl], (+)-, monochloride], the “block of IKr (in words)” value [3] is given as “predominantly, if not exclusively, block IKr”.

For CC(C)NC[C@@H](O)c1ccc(NS(C)(=O)=O)cc1 [d-sotalol], the “block of IKr (in words)” value [3] is given as “predominantly, if not exclusively, block IKr”.
